The record followed here is ChEMBL document CHEMBL5532653, “Dual inhibitors of HDAC and other epigenetic regulators: A novel strategy for cancer treatment” (Eur J Med Chem, 2024).

Series [1] concerns U-937. Description: Antiproliferative activity against human U-937 cells assessed as inhibition of cell growth at 3 uM measured after 72 hrs by CellTiter-Glo luminescent cell viability assay relative to control. Type of series: functional.
For series [2], the target named is T1, DNA (cytosine-5)-methyltransferase 1 (Homo sapiens, UniProt P26358). Kind of series: Inhibition of DNMT1 (unknown origin).
Series [3] concerns the target DNMT3B-DNMT3L complex (Homo sapiens, UniProt Q9UBC3). Description: Inhibition of DNMT3B/3L (unknown origin). Format: protein-complex assay.
The test system of series [4] is MCF7. Description: Antiproliferative activity against human MCF7 cells assessed as reduction in cell growth by MTT assay. Type of series: functional, cell-based.
The target in series [5] is T2, Protein deacetylase HDAC6 (Homo sapiens, UniProt Q9UBN7).
T2 sequence (Q9UBN7 whole entry): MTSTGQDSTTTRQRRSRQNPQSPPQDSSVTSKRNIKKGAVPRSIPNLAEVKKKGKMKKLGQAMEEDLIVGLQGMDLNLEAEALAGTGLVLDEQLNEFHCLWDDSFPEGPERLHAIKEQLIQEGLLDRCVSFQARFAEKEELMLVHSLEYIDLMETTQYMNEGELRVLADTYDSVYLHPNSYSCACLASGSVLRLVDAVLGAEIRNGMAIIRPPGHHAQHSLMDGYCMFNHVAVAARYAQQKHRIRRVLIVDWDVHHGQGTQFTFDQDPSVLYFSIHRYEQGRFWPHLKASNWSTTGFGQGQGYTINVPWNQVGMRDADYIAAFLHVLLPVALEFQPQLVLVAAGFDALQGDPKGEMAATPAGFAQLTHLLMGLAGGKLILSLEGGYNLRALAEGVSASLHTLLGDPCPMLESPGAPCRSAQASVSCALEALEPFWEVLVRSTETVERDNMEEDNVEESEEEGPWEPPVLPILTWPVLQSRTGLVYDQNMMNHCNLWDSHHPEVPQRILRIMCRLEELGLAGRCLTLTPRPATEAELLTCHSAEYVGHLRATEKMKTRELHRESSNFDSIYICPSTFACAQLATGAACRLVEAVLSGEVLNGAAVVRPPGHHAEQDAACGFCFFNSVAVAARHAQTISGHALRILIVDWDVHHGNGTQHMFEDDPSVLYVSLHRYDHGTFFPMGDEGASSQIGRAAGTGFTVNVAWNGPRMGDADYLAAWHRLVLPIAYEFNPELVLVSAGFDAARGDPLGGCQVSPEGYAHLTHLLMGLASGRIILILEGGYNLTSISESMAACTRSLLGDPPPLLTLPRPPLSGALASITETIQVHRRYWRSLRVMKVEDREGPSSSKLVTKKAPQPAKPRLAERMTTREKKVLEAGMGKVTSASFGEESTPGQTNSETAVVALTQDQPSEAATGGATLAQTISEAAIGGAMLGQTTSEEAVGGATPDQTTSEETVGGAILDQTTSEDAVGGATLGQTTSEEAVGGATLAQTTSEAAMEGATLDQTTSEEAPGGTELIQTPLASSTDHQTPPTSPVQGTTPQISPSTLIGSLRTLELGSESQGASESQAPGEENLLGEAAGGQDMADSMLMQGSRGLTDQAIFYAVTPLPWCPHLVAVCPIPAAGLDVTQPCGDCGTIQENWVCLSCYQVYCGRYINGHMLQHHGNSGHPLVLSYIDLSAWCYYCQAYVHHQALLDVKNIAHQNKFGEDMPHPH
Kind of series: Inhibition of HDAC6 (unknown origin) using Ac-peptide as substrate preincubated for 15 mins followed by substrate addition and measured after 1 hr by HTRF analysis.

In series [6] the test system is A549. Kind of series: Antiproliferative activity against human A549 cells assessed as reduction in cell growth by MTT assay. Format: functional, cell-based.
Series [7] concerns MDA-MB-231. Description: Antiproliferative activity against human MDA-MB-231 cells assessed as reduction in cell growth by MTT assay. Type of series: functional, cell-based.
Series [8] has as its target DNMT3A2/3L complex (Homo sapiens, UniProt Q9Y6K1). Kind of series: Inhibition of DNMT3A/DNMT3L (unknown origin). Type of series: protein-complex assay.
Series [9] has as its target T3, Histone deacetylase 1 (Homo sapiens, UniProt Q13547). Description: Inhibition of HDAC1 (unknown origin) using ArgHisLysLys(Ac) as substrate by fluorescence based analysis.
The target in series [10] is T2, Protein deacetylase HDAC6. Kind of series: Inhibition of human recombinant HDAC6 in HeLa cells using Boc-Lys(Ac)-AMC or Boc-Lys(Tfa)-AMC as fluorogenic substrate preincubated for 10 mins followed by substrate addition and measured after 1 hr by fluorescence based analysis. Format: cell-based.
Series [11] concerns the target T4, Histone deacetylase 2 (Homo sapiens, UniProt Q92769). Description: Inhibition of human recombinant HDAC2 in HeLa cells using Boc-Lys(Ac)-AMC or Boc-Lys(Tfa)-AMC as fluorogenic substrate preincubated for 10 mins followed by substrate addition and measured after 1 hr by fluorescence based analysis. Format: cell-based.
In series [12] the target is Histone deacetylase. Kind of series: Inhibition of human recombinant HDAC in HeLa cells using Boc-Lys(Ac)-AMC or Boc-Lys(Tfa)-AMC as fluorogenic substrate preincubated for 10 mins followed by substrate addition and measured after 1 hr by fluorescence based analysis. Type of series: cell-based.
The target in series [13] is T4, Histone deacetylase 2. Kind of series: Inhibition of HDAC2 (unknown origin) by fluorescence based analysis.
Series [14] concerns the target T5, Bromodomain-containing protein 3 (Homo sapiens, UniProt Q15059). Kind of series: Inhibition of recombinant BRD3 BD1 (unknown origin) incubated for 120 mins by TR-FRET assay.
Series [15] concerns the target T6, Bromodomain-containing protein 2 (Homo sapiens, UniProt P25440). Description: Inhibition of BRD2 BD2 (unknown origin) incubated for 180 min by TR-FRET assay. For orientation: Time-resolved FRET reads energy transfer from a long-lived donor to a nearby acceptor.
Series [16] deals with T6, Bromodomain-containing protein 2. Description: Inhibition of recombinant BRD2 BD1 (unknown origin) incubated for 120 mins by TR-FRET assay.
The target in series [17] is T5, Bromodomain-containing protein 3. Description: Inhibition of BRD3 BD2 (unknown origin) incubated for 180 min by TR-FRET assay.
Series [18] deals with T2, Protein deacetylase HDAC6. Kind of series: Inhibition of HDAC6 (unknown origin) by fluorescence based assay.
The target of series [19] is Histone deacetylase 3 (Homo sapiens, UniProt O15379). Kind of series: Inhibition of HDAC3 (unknown origin) using biotinylated histone H3 KAc peptide (1 to 21 residues) as substrate by HTRF assay.
Series [20] addresses Bromodomain testis-specific protein (Homo sapiens, UniProt Q58F21). Kind of series: Inhibition of BRDT BD2 (unknown origin) by TR-FRET assay.
Series [21] concerns the target Histone deacetylase 8 (Homo sapiens, UniProt Q9BY41). Kind of series: Inhibition of HDAC8 (unknown origin) using Fluoro-Substrate Peptide as substrate by fluorescence assay.
A short description of series [22]: Inhibition of HDAC1 ([…] residues) (unknown origin) FLAG-tagged CoREST1 (unknown origin) transfected in HEK293F cells using fluorogenic p53 (RHKK(Ac)AMC) as substrate preincubated for 30 mins followed by substrate addition and measured after 15 mins by fluorescence based analysis. On the set-up: species or system Homo sapiens.
Series [23] can be described thus: Antiproliferative activity against human WM983B cells assessed as reduction in cell growth incubated for 72 hrs by MTT assay. Type of series: functional, cell-based. Background: Formazan colour is commonly taken as a measure of viable cells.
Series [24] is described as follows: Antiproliferative activity against human MET-1 cells assessed as reduction in cell viability incubated for 72 hrs by MTT assay. Format: functional, cell-based. The conditions noted are these: MET-1, 72 h.
The subject of series [25] is SK-MEL-5. Kind of series: Antiproliferative activity against human SK-MEL-5 cells assessed as reduction in cell viability incubated for 72 hrs by MTT assay. Format: functional, cell-based. Particulars: SK-MEL-5, 72 h.
Series [26] in a line: Antiproliferative activity against human SCCIC1 cells assessed as cell growth inhibition measured after 72 hrs. Type of series: functional, cell-based. Particulars: SCCIC1, 72 h.
Series [27] can be described thus: Cytotoxicity against human CLL cells assessed as reduction in cell viability at 5 uM relative to control. Type of series: toxicity, cell-based.
Series [28] deals with NCI-H460. Kind of series: Antiproliferative activity against human NCI-H460 cells assessed as reduction in cell growth measured after 72 hrs by MTT assay. Type of series: functional, cell-based. The conditions noted are these: NCI-H460, 72 h.
In series [29] the test system is MEF. Description: Antiproliferative activity against mouse MEF cells assessed as cell growth inhibition measured after 48 hrs by MTT assay. Type of series: functional, cell-based.
Series [30] has as its system U-937. Description: Antiproliferative activity against human U-937 cells assessed as reduction in cell growth incubated for 72 hrs by MTT assay. Particulars: U-937, 72 h. Type of series: functional, cell-based.
The target in series [31] is T3, Histone deacetylase 1. Kind of series: Inhibition of HDAC1 (unknown origin) using Boc-Lys(Ac)-AMC or Boc-Lys(Tfa)-AMC as substrate incubated for 1 hr by fluorescence based analysis.
In series [32] the target is T2, Protein deacetylase HDAC6. Description: Inhibition of HDAC6 (unknown origin) using expressed in Sf9 cells using Boc-Lys(acetyI)-AMC as substrate preincubated for 1 hr followed by substrate addition and measured after 30 mins by fluorescence based analysis.
Series [33] has as its target T1, DNA (cytosine-5)-methyltransferase 1. Kind of series: Inhibition of DNMT1 (unknown origin) using SAM as substrate at 1 uM by fluorescence assay relative to control.
The test system of series [34] is D283 Med. Kind of series: Antiproliferative activity against human D283 Med cells assessed as inhibition of cell growth measured after 72 hrs by CellTiter-Glo assay. Type of series: functional, cell-based. For orientation: Cellular ATP, detected with luciferase, serves as a proxy for viable cell number.
Series [35] has as its system K562. Kind of series: Antiproliferative activity against human K562 cells assessed as reduction in cell viability by MTT assay. Type of series: functional, cell-based.
For series [36], the system named is MCF7. Kind of series: Antiproliferative activity against human MCF7 cells assessed as reduction in cell growth incubated for 72 hrs by MTT assay. Type of series: functional, cell-based. Particulars: MCF7, 72 h.
The nature of series [37]: Cytotoxicity against human HEK293T cells assessed as cell growth inhibition by MTT assay. Format: toxicity, cell-based, HEK-293T.
The subject of series [38] is A549. Description: Antiproliferative activity against human A549 cells assessed as reduction in cell viability measured after 48 hrs by MTT assay. Type of series: functional, cell-based. Particulars: A549, 48 h.
The subject of series [39] is HeLa. Description: Antiproliferative activity against human HeLa cells assessed as reduction in cell viability by MTT assay. Type of series: functional, cell-based.

T3 sequence (Q13547 whole entry): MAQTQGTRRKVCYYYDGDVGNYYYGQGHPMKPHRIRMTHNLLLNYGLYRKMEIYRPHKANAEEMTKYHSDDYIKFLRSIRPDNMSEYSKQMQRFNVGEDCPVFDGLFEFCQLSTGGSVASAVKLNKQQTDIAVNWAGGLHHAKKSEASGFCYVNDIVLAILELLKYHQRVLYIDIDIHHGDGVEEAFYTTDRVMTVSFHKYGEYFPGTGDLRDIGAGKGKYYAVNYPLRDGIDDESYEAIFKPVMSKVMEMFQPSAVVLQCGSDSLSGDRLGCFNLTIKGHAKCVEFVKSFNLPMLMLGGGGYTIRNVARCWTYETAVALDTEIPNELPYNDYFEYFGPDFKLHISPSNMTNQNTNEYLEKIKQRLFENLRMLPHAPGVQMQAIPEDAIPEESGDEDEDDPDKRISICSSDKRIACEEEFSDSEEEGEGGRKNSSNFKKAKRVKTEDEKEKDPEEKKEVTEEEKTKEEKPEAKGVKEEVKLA
T5 sequence (Q15059 whole entry): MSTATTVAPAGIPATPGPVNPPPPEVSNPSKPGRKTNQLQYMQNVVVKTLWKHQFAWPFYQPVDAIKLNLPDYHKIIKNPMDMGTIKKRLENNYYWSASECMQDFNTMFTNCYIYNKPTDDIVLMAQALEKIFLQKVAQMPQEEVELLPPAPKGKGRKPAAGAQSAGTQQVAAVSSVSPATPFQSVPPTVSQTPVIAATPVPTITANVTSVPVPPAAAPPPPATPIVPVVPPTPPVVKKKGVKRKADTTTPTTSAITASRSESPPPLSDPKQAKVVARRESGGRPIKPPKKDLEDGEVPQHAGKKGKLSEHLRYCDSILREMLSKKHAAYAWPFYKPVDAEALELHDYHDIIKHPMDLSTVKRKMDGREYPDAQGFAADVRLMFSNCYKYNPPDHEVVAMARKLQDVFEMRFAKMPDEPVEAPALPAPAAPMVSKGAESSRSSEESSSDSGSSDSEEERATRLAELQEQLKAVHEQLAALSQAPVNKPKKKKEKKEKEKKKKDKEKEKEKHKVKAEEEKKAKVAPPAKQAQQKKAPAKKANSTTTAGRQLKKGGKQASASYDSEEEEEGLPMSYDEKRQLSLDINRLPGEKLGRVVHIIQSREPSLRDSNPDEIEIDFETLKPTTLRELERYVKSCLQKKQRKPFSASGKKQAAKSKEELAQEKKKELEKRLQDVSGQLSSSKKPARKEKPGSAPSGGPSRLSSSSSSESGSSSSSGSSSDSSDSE
T1 sequence (P26358 whole entry): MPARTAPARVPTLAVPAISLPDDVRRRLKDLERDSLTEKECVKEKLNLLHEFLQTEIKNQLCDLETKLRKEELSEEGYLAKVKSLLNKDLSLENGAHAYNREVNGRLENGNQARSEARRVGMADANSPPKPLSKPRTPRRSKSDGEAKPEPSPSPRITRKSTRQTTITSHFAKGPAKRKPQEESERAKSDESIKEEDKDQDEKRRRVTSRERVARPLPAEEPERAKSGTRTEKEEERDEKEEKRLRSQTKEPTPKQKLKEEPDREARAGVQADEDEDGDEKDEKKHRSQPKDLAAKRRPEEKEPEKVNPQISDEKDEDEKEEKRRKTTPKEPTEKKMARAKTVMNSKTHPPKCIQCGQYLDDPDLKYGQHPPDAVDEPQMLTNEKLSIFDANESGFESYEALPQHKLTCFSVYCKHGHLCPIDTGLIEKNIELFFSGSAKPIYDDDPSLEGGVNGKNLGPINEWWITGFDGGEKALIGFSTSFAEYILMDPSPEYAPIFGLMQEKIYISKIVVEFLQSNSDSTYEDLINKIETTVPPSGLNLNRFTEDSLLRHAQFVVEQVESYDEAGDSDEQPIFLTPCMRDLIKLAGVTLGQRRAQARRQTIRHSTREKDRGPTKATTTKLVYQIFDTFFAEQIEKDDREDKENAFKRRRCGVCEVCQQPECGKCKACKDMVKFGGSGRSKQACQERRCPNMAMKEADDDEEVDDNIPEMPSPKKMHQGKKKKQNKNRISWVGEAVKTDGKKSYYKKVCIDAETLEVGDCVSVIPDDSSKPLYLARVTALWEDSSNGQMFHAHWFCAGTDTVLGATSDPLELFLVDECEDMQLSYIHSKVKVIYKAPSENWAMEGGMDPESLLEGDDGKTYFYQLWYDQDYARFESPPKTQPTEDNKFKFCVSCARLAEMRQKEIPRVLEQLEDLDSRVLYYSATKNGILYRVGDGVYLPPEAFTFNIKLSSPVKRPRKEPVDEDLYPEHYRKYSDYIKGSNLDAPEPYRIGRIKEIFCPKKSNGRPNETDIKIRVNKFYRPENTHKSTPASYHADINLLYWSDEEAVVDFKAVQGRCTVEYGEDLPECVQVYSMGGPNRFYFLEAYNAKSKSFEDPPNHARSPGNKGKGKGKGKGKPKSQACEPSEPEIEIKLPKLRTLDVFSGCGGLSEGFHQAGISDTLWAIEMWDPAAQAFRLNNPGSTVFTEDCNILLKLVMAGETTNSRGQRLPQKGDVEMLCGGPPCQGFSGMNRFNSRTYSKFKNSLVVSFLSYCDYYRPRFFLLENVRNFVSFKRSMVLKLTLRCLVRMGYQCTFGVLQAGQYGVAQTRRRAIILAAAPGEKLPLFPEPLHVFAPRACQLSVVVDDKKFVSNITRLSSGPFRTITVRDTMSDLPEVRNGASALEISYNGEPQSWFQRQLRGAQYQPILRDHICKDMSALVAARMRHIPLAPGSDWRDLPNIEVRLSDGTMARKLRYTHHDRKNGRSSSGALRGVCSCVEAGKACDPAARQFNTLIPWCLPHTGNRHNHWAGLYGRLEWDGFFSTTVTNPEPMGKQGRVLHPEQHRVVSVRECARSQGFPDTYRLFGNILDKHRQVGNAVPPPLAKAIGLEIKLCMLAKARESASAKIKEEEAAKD
T6 sequence (P25440 whole entry): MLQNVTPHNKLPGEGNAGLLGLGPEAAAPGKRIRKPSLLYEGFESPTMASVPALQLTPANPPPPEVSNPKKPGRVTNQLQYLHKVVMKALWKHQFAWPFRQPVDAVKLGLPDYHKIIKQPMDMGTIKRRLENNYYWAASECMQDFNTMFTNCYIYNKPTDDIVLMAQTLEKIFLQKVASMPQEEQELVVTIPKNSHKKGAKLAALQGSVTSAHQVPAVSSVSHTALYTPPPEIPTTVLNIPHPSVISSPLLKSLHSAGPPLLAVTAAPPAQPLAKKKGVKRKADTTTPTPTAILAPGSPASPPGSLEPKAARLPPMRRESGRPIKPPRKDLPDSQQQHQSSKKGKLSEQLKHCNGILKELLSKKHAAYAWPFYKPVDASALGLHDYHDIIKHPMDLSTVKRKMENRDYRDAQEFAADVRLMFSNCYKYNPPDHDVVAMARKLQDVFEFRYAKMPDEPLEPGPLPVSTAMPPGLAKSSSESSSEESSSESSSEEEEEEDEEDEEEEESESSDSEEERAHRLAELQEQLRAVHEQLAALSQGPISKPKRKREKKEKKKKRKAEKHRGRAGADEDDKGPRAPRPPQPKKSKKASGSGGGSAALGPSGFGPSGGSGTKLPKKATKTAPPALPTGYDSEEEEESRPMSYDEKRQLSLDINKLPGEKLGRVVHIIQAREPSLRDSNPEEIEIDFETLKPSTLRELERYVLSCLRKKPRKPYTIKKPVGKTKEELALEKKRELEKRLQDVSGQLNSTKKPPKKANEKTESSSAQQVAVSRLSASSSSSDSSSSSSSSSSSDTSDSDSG
T4 sequence (Q92769 whole entry): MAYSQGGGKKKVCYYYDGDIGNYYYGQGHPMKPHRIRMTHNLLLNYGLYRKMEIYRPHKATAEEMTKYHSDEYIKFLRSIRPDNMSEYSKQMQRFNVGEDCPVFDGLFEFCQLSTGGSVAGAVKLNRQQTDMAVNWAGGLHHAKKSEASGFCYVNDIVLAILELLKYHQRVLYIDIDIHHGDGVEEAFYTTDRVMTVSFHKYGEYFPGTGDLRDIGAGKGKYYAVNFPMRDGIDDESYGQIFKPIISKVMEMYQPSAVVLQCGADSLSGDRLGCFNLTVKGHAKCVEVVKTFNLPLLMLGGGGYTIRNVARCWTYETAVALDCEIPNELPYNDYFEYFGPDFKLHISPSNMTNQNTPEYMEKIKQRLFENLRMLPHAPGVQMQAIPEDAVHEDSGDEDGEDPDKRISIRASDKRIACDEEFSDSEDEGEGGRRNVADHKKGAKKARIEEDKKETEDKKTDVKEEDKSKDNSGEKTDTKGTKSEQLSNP
Sequence of DNMT3A2/3L complex (Q9Y6K1 whole entry, looked up, one chain of several): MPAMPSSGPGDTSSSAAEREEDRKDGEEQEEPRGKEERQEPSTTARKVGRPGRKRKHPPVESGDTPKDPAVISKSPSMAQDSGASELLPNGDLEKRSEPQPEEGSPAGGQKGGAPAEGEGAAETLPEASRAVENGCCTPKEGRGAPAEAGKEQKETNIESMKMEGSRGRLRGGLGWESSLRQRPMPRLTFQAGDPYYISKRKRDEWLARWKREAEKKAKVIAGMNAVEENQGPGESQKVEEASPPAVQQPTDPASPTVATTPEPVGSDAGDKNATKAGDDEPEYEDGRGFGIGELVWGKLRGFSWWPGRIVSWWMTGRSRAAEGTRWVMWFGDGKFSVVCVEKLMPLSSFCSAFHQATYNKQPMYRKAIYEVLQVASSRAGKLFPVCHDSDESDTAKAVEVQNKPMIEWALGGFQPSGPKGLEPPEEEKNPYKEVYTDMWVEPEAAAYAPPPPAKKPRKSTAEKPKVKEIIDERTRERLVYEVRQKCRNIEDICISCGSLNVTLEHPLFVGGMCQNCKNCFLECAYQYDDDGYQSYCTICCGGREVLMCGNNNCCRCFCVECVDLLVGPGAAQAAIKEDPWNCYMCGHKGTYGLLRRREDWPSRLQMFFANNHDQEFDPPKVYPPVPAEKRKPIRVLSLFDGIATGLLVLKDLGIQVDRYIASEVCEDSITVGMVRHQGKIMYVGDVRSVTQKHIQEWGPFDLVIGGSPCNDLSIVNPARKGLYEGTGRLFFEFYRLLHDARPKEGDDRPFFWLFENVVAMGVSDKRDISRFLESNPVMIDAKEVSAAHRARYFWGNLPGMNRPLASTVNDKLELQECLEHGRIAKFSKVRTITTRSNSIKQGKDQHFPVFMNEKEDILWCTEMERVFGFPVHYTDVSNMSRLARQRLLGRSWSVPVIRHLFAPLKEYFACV

By inhibition is commonly meant the change of the read-out against control, counted positive when it falls. As to `Cc1sc2c(c1C)C(c1ccc(Cl)cc1)=N[C@@H](CC(=O)NCCCC(=O)Nc1ccccc1N)c1nnc(C)n1-2`, the inhibition at 3 µM in series [1] was 84%.

One may read the IC50 as the concentration that gives 50% inhibition. In the case of `O=C(NO)C1CCN(C[C@@H](O)COC(Cn2c3ccccc3c3ccccc32)Cn2c3ccccc3c3ccccc32)CC1`, the IC50 was 2.02 µM in series [2]; 1.32 µM in [3]; 1.88 µM in series [4]; more than 100 µM in [5]; 3.92 µM in series [6]; 4.65 µM in [7]. Further, the IC50 in [8] turned out to be 0.93 µM; in [9], 4.16 µM.

On to `Cc1noc(C)c1-c1ccc2c(c1)c(Cc1ccc(F)cc1)cn2CCCCCCC(=O)NO`, for which the IC50 in series [10] is more than 1 µM; in [11], 0.029 µM; in [12], 0.291 µM.

Regarding `Cc1sc2c(c1C)C(c1ccc(Cl)cc1)=N[C@@H](CC(=O)Nc1ccc(C(=O)NO)cc1)c1nnc(C)n1-2`, the IC50 in [13] is 0.052 µM; in series [14], 0.133 µM; in series [15], 0.078 µM; in series [16], 0.316 µM; in [17], 0.038 µM; in series [18], 0.034 µM. In addition, the values for the IC50 in [19], in series [20] and in [21] were 0.039 µM, 32.2 µM and 0.192 µM, respectively.

On to `Nc1ccccc1NC(=O)c1ccc(CCCC(=O)Nc2ccc(C3CC3N)cc2)cc1` (centres undefined), for which the 50% inhibitory concentration (IC50) in [22] turned out to be 0.206 µM; in series [23], 0.2 µM; in series [24] it was 0.006 µM; in series [25] it was 0.13 µM; in series [26], 0.041 µM.

`Cn1c(CCCCCCC(=O)NO)nc2cc(N(CCCl)CCCl)ccc21` [TINOSTAMUSTINE]: in series [27], the Activity is on record as ~ 100 nM. Moreover, the IC50 in [28] came out at 2.2 µM; in [29], 5.7 µM.

Regarding `Nc1ncnc2c1ncn2Cc1ccc(-c2cn(CCCCCCC(=O)NO)nn2)cc1`, the IC50 in [30] turned out to be 1.3 µM; in series [31], 0.0024 µM; in series [32], 0.0048 µM. This compound also yielded an inhibition in [33] of 44.5%.

Regarding `Cn1cc(-c2ccc(S(=O)(=O)n3ccc(/C=C/C(=O)Nc4ccccc4N)c3)cc2)cn1` [DOMATINOSTAT], in series [34], the 50% inhibitory concentration (IC50) was determined as 0.15 µM.

Turning to `COc1ccc2c(NC3CCN(Cc4ccccc4)CC3)nc(NCCNC(=O)CCCCC(=O)NO)nc2c1`, the 50% inhibitory concentration (IC50) in [35] is 5.74 µM; in series [36] it was 37.4 µM; in [37], 19.9 µM; in series [38] it was 36.2 µM; in series [39], 15.3 µM.
